From patent publication US20260041620A1, “NOVEL AMINO ACID BASED SALTS, COMPOSITIONS AND METHODS FOR TREATING SKIN AND IMPROVING SKIN REJUVENATION AND LONGEVITY” (Sytheon Ltd, priority 2023, published 2026)
Like-named read-outs stand apart in the source and are kept apart here.

Assays:
FAAH = molecular target: T1, FAAH (Homo sapiens, UniProt O00519); test: FAAH fluorescence-based inhibitory assay; assay type: biochemical
T1 sequence (O00519 1-579): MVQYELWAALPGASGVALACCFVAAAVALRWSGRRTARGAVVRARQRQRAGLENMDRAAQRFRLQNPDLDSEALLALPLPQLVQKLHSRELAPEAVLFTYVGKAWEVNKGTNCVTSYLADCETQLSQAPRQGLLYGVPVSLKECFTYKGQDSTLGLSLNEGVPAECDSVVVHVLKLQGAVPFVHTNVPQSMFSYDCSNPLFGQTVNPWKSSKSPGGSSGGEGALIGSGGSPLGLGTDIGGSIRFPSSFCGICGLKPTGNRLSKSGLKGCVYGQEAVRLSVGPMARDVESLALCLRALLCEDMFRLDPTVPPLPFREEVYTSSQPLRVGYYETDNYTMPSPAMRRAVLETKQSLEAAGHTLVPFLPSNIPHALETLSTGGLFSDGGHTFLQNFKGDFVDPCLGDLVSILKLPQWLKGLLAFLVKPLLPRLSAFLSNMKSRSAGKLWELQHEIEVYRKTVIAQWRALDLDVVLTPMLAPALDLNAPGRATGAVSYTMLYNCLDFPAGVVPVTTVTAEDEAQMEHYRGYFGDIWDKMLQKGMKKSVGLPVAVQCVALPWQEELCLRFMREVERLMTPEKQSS

HDAC7 = molecular target: T2, HDAC7 (Homo sapiens, UniProt Q8WUI4)
T2 sequence (Q8WUI4 1-952): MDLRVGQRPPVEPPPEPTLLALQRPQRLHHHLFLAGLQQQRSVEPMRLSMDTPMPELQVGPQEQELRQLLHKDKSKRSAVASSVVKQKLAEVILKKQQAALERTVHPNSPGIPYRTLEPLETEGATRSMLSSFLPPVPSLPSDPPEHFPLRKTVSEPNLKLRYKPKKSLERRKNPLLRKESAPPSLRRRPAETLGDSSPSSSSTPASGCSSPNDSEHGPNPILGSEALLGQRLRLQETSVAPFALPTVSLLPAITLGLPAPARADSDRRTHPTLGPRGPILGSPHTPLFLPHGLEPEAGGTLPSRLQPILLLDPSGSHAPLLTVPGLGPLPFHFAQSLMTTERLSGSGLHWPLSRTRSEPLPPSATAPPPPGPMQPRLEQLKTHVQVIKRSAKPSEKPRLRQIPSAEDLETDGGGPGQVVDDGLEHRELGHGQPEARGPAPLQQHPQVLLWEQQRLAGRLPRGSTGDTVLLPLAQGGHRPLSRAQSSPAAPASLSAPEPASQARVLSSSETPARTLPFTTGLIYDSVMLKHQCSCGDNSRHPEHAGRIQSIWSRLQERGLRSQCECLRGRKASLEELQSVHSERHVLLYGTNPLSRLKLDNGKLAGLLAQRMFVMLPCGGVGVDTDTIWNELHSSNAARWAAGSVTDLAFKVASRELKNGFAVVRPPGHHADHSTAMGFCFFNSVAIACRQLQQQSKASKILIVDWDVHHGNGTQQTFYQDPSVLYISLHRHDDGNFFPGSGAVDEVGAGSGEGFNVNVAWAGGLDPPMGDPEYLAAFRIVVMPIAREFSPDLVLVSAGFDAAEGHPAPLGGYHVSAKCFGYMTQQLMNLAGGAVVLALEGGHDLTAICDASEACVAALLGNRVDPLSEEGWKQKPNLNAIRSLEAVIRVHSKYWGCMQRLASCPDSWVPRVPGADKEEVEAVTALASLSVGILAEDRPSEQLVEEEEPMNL
Protocol: (§1) Test materials were stored at room temperature and stock solutions were prepared at 20 mg/ml in DMSO. Further dilutions were made in sterile distilled water immediately before being added to the reaction mixture containing a substrate, and the reaction was triggered by the addition of purified HDAC enzymes, Double distilled water was the negative control and trichostatin (1.5 ug/ml) was used as a positive control for validation of each study. The test procedure was as directed in the assay kits. The products of the reactions were measured by fluorometry at ex/em 350/450 nm using multi-well plate fluorometer Cytofluor 4000 (Applied Biosystem, Foster City, CA) or using SpectraMax i3× Multi-Mode Detection Platform from Molecular Devices (Sunnyvale, CA).
(§2) Statistical significance was assessed with a two-tail Student test. Deviations of ≤20% as compared to water control with p values below 0.05 were considered statistically significant.

HDAC 3 = HDAC 3 (Homo sapiens, UniProt O15379)
HDAC 3, sequence (O15379 whole entry): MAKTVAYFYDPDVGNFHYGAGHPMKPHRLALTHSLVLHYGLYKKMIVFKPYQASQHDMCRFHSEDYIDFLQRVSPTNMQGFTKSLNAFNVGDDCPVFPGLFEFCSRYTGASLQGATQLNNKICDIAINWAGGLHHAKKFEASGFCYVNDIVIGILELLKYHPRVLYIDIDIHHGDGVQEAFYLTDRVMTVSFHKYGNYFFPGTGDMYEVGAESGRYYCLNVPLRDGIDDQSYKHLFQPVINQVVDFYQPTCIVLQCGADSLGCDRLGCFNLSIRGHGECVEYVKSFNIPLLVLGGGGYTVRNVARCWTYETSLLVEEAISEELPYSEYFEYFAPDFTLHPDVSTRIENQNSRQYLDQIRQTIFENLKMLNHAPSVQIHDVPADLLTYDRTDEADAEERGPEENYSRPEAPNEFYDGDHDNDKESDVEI
HDAC 3, sequence (Q9Y618 395-489 partner limits assumed): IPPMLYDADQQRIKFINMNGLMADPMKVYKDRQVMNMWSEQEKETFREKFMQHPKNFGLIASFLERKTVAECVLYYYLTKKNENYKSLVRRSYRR
Protocol: as §1, §2

HDAC 11 = molecular target: T3, HDAC 11 (Homo sapiens, UniProt Q96DB2); test: HDAC 11 fluorogenic assay kit; assay type: biochemical
T3 construct: purchased BPS Biosciences 50687
T3 sequence (Q96DB2 1-347): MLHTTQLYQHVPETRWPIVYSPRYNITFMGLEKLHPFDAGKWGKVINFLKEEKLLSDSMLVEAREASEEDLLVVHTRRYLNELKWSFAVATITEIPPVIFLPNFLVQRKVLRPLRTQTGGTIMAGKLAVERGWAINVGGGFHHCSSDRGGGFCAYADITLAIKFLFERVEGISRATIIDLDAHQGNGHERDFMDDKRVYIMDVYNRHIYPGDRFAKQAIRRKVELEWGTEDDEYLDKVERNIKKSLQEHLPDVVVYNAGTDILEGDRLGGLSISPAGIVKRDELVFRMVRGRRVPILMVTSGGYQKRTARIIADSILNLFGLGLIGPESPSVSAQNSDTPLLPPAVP
Protocol: as §1, §2

FABP-3 = molecular target: T4, FABP-3 (Homo sapiens, UniProt P05413); test: FABP-3 ELISA inhibitory assay; assay type: biochemical
T4 construct: purchased Neovateinbio PT-452
T4 sequence (P05413 whole entry): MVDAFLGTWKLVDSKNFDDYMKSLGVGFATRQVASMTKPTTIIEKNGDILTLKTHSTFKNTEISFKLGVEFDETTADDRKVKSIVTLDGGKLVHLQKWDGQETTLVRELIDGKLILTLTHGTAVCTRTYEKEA

HDAC1 = HDAC1 (Homo sapiens, UniProt Q13547); test: HDAC 1 fluorogenic assay kit; details: 200 ug/ml
HDAC1, sequence (Q13547 whole entry): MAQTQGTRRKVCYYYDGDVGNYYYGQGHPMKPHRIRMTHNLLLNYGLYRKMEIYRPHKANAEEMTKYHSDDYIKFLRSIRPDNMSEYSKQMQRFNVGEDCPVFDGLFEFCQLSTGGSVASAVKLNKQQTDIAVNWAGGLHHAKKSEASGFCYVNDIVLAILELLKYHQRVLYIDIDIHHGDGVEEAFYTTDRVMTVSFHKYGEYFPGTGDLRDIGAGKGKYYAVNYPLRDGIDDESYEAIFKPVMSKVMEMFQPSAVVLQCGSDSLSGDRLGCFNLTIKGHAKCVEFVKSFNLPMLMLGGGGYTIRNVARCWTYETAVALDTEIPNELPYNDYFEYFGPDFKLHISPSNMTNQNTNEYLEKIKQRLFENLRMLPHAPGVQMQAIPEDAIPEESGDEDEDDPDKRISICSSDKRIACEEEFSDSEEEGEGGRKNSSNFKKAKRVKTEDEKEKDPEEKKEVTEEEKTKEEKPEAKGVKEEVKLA
Protocol: as §1, §2

MAGL = molecular target: T5, MAGL (Homo sapiens, UniProt Q99685); test: MAGL inhibitory assay; assay type: biochemical
T5 construct: purchased Cayman 10007812
T5 sequence (Q99685 1-303): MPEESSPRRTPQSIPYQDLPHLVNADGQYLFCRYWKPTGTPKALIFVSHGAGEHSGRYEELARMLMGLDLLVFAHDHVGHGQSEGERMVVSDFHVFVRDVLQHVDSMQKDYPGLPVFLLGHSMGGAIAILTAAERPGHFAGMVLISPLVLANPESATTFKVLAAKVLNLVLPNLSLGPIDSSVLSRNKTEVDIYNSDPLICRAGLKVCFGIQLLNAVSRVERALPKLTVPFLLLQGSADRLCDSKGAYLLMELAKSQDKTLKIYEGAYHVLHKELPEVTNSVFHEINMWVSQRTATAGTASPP
Protocol: Each study was performed in duplicate and the results averaged.
The final concentration in each well was 10 μl of sample, 5.6 μM MAGL (Cayman Catalog #10007812) and 23.6 μM 2-Arachidonoyl Glycerol (Cayman catalog #62160).

HDAC10 = molecular target: T6, HDAC10 (Homo sapiens, UniProt Q969S8)
T6 sequence (Q969S8 1-669): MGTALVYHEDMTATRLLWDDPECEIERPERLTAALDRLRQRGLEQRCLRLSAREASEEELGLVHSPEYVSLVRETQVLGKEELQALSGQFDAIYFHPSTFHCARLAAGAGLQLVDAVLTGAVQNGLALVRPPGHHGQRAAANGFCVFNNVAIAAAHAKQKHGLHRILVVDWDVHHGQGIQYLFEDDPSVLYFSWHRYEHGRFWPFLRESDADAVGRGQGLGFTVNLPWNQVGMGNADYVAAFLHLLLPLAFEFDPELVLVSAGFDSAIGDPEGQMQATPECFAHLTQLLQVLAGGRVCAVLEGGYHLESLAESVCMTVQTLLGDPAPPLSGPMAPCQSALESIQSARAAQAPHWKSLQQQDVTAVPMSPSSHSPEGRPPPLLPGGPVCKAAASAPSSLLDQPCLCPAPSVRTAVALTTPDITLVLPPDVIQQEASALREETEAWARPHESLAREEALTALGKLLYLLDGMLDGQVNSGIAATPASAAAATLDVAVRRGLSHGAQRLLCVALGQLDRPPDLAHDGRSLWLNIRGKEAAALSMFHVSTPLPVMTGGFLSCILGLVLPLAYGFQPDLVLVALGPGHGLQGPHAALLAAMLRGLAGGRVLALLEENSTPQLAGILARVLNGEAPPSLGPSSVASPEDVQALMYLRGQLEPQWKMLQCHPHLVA
Protocol: as §1, §2

FABP-5 = molecular target: T7, FABP-5 (Homo sapiens, UniProt Q01469); test: FABP-5 ELISA inhibitory assay; assay type: biochemical
T7 construct: purchased Raybiotech 268-10276-1
T7 sequence (Q01469 whole entry): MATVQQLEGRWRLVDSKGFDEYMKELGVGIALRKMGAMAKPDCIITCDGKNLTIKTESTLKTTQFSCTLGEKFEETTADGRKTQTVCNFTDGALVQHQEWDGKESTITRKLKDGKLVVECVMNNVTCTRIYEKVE

HDAC 4 = HDAC 4 (Homo sapiens, UniProt P56524); test: HDAC 4 fluorogenic assay kit
HDAC 4, sequence (P56524 whole entry): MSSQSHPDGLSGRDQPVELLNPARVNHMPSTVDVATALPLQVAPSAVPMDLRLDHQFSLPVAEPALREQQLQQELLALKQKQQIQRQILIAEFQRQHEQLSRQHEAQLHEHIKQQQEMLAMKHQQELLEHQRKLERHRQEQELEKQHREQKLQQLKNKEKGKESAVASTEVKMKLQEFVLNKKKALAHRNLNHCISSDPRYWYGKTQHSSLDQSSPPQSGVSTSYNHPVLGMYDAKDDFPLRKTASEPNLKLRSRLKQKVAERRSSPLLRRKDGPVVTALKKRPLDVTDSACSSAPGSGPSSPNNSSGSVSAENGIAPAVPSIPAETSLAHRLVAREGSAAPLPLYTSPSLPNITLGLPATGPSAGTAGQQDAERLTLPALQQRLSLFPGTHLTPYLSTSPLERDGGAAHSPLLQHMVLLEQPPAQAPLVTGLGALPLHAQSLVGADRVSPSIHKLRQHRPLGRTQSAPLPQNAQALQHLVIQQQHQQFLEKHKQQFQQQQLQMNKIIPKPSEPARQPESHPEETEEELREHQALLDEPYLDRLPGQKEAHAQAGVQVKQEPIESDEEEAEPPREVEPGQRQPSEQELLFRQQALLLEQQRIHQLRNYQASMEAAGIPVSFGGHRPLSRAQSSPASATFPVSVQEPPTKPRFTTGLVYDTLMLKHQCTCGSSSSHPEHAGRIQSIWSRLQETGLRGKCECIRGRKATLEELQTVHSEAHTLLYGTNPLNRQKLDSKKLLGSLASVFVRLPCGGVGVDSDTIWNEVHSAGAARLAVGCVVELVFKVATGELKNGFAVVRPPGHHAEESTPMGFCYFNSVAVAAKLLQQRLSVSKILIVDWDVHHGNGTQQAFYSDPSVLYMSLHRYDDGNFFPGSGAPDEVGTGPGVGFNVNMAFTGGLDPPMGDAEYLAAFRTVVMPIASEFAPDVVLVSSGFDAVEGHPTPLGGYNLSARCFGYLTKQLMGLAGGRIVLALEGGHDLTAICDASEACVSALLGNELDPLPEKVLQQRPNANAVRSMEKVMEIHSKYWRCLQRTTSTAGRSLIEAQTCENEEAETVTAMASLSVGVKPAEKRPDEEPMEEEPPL
Protocol: as §1, §2

## CCCC(=O)NCCCC[C@H](NC(=O)CCC)C(=O)[O-].CCCC(=O)NCCCC[C@H](NC(=O)CCC)C(=O)[O-].[Mg+2] [Mg di-(di-n-butyryl lysinate), magnesium di-(di-n-butyryl lysinate)]
FAAH
  FAAH IC50: 368.5 µg/mL
HDAC7; 100 ug/ml
  HDAC 7 activity, % of water-treated controls: 100%
HDAC7; 200 ug/ml
  HDAC 7 activity, % of water-treated controls: 100%
HDAC 3; 100 ug/ml
  HDAC 3 activity, % of water-treated controls: 114%
HDAC 3; 200 ug/ml
  HDAC 3 activity, % of water-treated controls: 117%
HDAC 11; 100 ug/ml
  HDAC 11 activity, % of water-treated controls: 91%
HDAC 11; 200 ug/ml
  HDAC 11 activity, % of water-treated controls: 91%
FABP-3
  FABP-3 IC50: 282.5 µg/mL
HDAC1
  HDAC 1 activity, % of water-treated controls: 74%
MAGL
  MAGL IC50: 101 µg/mL
HDAC10; 100 ug/ml
  HDAC 10 activity, % of water-treated controls: 98%
HDAC10; 200 ug/ml
  HDAC 10 activity, % of water-treated controls: 102%
FABP-5
  FABP-5 IC50: 349.1 µg/mL

## calcium dilysinate [Ca dilysinate]
FAAH
  FAAH IC50: 445.1 µg/mL
HDAC 4; 25 ug/ml
  HDAC 4 activity, % of water-treated controls: 109%
HDAC 4; 50 ug/ml
  HDAC 4 activity, % of water-treated controls: 101%
HDAC 4; 100 ug/ml
  HDAC 4 activity, % of water-treated controls: 107%
FABP-3
  FABP-3 IC50: 208.6 µg/mL
MAGL
  MAGL IC50: 856.0 µg/mL
FABP-5
  FABP-5 IC50: 871.4 µg/mL
